# Experimental data as given in article PMC8245855 (Acta Pharmaceutica Sinica. B, 2021).
# Where two headings read alike, the source gives them in different places.
# Key:
# 5-LOX [1] = settings: cited from earlier work; for IC50: read-out: IC50, 5-LOX
# 15-LOX = settings: 10 μmol/L; human neutrophils; cited from earlier work
# 12-LOX = target: T1, 12-LOX (Homo sapiens, UniProt P18054); settings: 10 μmol/L; human neutrophils; cited from earlier work
# T1 sequence (P18054 1-663): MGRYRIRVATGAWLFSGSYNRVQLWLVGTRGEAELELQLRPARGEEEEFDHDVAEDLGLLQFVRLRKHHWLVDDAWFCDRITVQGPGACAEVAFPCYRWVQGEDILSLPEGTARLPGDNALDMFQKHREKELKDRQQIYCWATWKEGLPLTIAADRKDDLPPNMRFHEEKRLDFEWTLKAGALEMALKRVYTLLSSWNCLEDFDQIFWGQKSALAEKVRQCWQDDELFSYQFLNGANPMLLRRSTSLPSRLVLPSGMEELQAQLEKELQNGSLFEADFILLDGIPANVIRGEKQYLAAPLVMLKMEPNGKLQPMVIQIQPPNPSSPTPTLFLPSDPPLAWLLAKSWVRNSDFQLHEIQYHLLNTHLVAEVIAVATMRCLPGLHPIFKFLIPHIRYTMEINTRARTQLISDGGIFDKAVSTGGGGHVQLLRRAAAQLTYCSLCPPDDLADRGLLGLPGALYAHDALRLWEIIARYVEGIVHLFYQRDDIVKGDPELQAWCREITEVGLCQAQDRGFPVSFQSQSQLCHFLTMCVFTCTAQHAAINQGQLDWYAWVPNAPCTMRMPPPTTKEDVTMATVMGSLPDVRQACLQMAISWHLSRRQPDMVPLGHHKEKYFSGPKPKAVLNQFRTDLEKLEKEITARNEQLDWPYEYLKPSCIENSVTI
# 5-LOX [2] = target: T2, 5-LOX (Homo sapiens, UniProt P09917); test: cell-free 5-LOX activity; format: biochemical; settings: for IC50: read-out: IC50, human recombinant 5-LOX, arachidonic acid 20 μmol/L
# T2 sequence (P09917 1-674): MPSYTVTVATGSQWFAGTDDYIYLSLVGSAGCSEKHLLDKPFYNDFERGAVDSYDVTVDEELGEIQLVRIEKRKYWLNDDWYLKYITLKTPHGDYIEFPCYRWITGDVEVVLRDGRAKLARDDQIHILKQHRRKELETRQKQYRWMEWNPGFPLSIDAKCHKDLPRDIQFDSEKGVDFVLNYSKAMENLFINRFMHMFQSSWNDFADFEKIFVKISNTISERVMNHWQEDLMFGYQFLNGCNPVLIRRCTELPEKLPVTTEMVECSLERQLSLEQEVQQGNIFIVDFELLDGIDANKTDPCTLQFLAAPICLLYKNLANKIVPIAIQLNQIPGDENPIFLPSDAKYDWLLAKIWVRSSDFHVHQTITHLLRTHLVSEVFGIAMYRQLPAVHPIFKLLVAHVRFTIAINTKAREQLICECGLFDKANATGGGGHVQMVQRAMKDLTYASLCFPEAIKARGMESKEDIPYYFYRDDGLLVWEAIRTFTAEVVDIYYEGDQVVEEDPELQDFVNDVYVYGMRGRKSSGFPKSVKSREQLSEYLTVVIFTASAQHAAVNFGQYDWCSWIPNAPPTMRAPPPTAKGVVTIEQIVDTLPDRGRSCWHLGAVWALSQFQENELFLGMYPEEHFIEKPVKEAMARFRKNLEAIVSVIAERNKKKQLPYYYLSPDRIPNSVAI
# 5-LOX [3] = target: T2, 5-LOX; test: 5-LOX product formation in activated PMNL; format: cell-based; settings: for IC50: read-out: IC50, 5-LOX product formation, activated PMNL, A23187 plus arachidonic acid
# COX-1 = settings: read-out: IC50, COX-1; cited from earlier work
# [4] = tested on: human neutrophils or macrophages; settings: cited from earlier work
compound,measurement,setting,value
3-O-acetyl-11-keto-β-boswellic acid [AKBA],IC50,5-LOX [1],3 µM
same,formation of 15-LOX metabolites,15-LOX,210%
same,formation of 12-LOX metabolites,12-LOX,270%
COc1ccc(C(CCc2ccc(O)cc2OC)c2cc3c(c(C)c2O)OC(c2ccc(O)cc2)CC3)cc1 (centres unmarked) [Compound 3],IC50,5-LOX [2],0.3 ± 0.07 µM
same,IC50,5-LOX [3],0.8 ± 0.14 µM
COc1cc(O)ccc1CCC(c1ccc(O)cc1)c1c(O)c(C)c2c(c1O)C(=O)CC(c1ccc(O)cc1)O2 (centres unmarked) [Compound 4],IC50,5-LOX [2],0.9 ± 0.26 µM
same,IC50,5-LOX [3],0.46 ± 0.12 µM
"CC(c1cc2ccccc2s1)N(O)C(N)=O (centres unmarked) [Zileuton, zileuton]","suppression of 5-LOX product formation, cell-free",5-LOX [2]; 3 μmol/L,70.7 ± 2.7%
same,inhibition at 3 µM,"5-LOX [3]; PMNL, read-out: inhibition of biosynthesis of 5-LOX metabolites, PMNL",64.1 ± 6.3%
Cc1cc(C(C)(C)C)c(O)c(C)c1CC1=NCCN1 [oxymetazoline],5-LOX product formation,5-LOX [1]; 1000 μmol/L,failed to inhibit
same,SPM formation,[4]; 400 μmol/L,130%
ginkgolic acid,IC50,5-LOX [1],0.2 µM
same,SPM formation,[4]; 10 μmol/L,110%–240%
